{"source": "patent US20130123201A1", "about": "“MODULATION OF CYTOKINE-INDUCED CHRONIC INFLAMMATORY RESPONSES” (UNIVERSITY OF MANITOBA, priority 2010, published 2013)", "key": {"[1]": {"test_system": "NF-κB in rabbit synoviocyte HIG-82 cells", "experiment": "NF-κB-reporter luminescence assay", "assay_type": "cell-based", "conditions": "rabbit synovial fibroblast cell line HIG-82, 4 and 6 hr", "method": "NF-κB-reporter luminensence assay: Rabbit synoviocyte HIG-82 cells were transiently transfected with pNFκB-MetLuc2-Reporter Vector (Clontech laboratories Inc., Mountain View, Calif., USA) or the provided control vector as per the manufacturer's instructions. Various stimulants were added to the transfected cells in culture media containing 1% (v/v) FBS. The cells were stimulated with either recombinant human IL-32 or IL-17, and in parallel with known activators of NF-κB such as pro-inflammatory recombinant human cytokines TNF-αand IL-1β, or bacterial lipopolysaccharide (LPS), for 4 or 6 hr. The activation of NF-κB was monitored by employing the Ready-To-Glow Secreted NF-κB Luciferase Reporter Assay (Clontech) as per the manufacturer's instructions.\nNF-κB-reporter luminensence assay: In order to monitor direct NF-κB activation in synoviocytes, a rabbit synoviocyte cell line, HIG-82 (ATCC® CRL-1832) was transiently transfected with pNFκB-MetLuc2-Reporter Vector (Clontech laboratories Inc., Mountain View, Calif., USA) or the provided control vector as per the manufacturer's instructions. Various stimulants were added to the transfected cells in culture media containing 1% (v/v) FBS. […] The activation of NF-κB was monitored by employing the Ready-To-Glow Secreted NF-κB Luciferase Reporter Assay (Clontech Laboratories Inc.) per the manufacturer's instructions."}, "[2]": {"test_system": "Human fibroblast-like synovial (FLS) cells", "experiment": "ELISA of chemokine production in FLS tissue culture supernatants", "assay_type": "cell-based", "method": "ELISA immunoassay: Tissue culture supernatants were centrifuged at 1500× g for 5-7 min to obtain cell-free samples and the aliquots were stored at −20° C. until further use. Production of chemokine Gro-α was monitored in the tissue culture supernatants by ELISA employing human Gro-α DuoSet (R&D Systems Inc.) as per the manufacturer's instructions. Production of cytokine TNF-α was monitored in the tissue culture supernatants using specific antibody pairs from eBioscience, Inc., and production of IL-8 was monitored using specific antibody pairs from R&D Systems, Inc., as per the manufacturer's instructions. The concentration of the cytokines or chemokines in the tissue culture supernatants was evaluated by establishing a standard curve with serial dilutions of the recombinant human cytokines or chemokines as required.\nELISA immunoassay: Tissue culture supernatants were centrifuged at 1500× g for 5-7 min to obtain cell-free samples and the aliquots were stored at −20° C. until further use. Production of chemokine Gro-α was monitored in the tissue culture supernatants by ELISA employing human Gro-α DuoSet (R&D Systems Inc.) per the manufacturer's instructions. […] The concentrations of the cytokines or chemokines in the tissue culture supernatants were evaluated by establishing a standard curve with serial dilutions of the recombinant human cytokines or chemokines as required."}, "[3]": {"test_system": "phospho-p300 (Ser1834)", "experiment": "Immunoblot with phospho-p300 (Ser1834) antibody", "assay_type": "cell-based, human", "conditions": "within 15 min, compared to un-stimulated cells", "method": "(§1) Immunoblots: Cell lysates were prepared in lysis buffer containing 20 mM Tris-HCl pH 7.5, 150 mM NaCl, 1 mM EDTA, 1 mM EGTA, 1 mM sodium fluoride, 1 mM sodium orthovanadate, 2.5 mM sodium pyrophosphate, protease inhibitor cocktail (Sigma-Aldrich) and 1% (v/v) Triton X-100. The lysates were electrophoretically resolved on a 4-12% NuPAGE® Bis-Tris gels (Invitrogen Corporation, Burlington, ON, Canda), followed by transfer to nitrocellulose membranes (Millipore, Canada). The membranes were subsequently probed with either phospho-p300 (Ser1834) polyclonal antibody, monoclonal antibody against phospho-DAPK (Ser308) or monoclonal antibody to glyceraldehyde-3-phosphate dehydrogenase (GAPDH) in TBST (20 mM Tris pH 7.5, 150 mM NaCl, 0.1% Tween 20) containing 5% skimmed milk powder. Affinity purified HRP-linked horse anti-mouse or goat anti-rabbit antibodies were used for detection as required. The membranes were development with Amersham ECL detection system (GE Healthcare, Baie d'Urfe QC, Canada) according to the manufacturer's instructions.\n(§2) Immunoblots: Cell lysates were prepared in lysis buffer containing 20 mM Tris-HCl pH 7.5, 150 mM NaCl, 1 mM EDTA, 1 mM EGTA, 1 mM sodium fluoride, 1 mM sodium orthovanadate, 2.5 mM sodium pyrophosphate, protease inhibitor cocktail (Sigma-Aldrich Canada Inc.) and 1% (v/v) Triton X-100. […]"}, "[4]": {"test_system": "phospho-DAPK (Ser308)", "experiment": "Immunoblot with phospho-DAPK (Ser308) antibody", "assay_type": "cell-based, human", "conditions": "within 15 min, compared to un-stimulated cells", "method": "as §1, §2"}}, "note": "“Also recorded” adds a separate entry of the source.", "data": [{"substance": "IL-17: Recombinant human cytokine IL-17A/F from eBioscience, used as stimulant", "values": [{"measurement": "Activation of transcription factor NF-κB", "setting": "[1]", "result": "induced direct activation; also recorded: activated"}, {"measurement": "Chemokine Gro-α production", "setting": "[2]", "result": "robust induction; also recorded: robust Gro-α production"}, {"measurement": "Effect on TNF-α-induced chemokine Gro-α production", "setting": "[2]; TNF-α 10 ng/mL plus cytokine 20 ng/mL, 24 hr", "result": "synergistically enhanced"}, {"measurement": "Phosphorylation of p300 (Ser1834) by immunoblot", "setting": "[3]", "result": "increased phosphorylation"}, {"measurement": "Phosphorylation of DAPK (Ser308) by immunoblot", "setting": "[4]", "result": "increased phosphorylation"}]}]}
